Values after ≈ are worked out from the molar mass of the structure shown.
These compounds were tested on Staphylococcus aureus (assay: Antibacterial activity against Staphylococcus aureus RN4220 after 24 hrs by broth microdilution method). Conditions: RN4220, 24 h.
Assay type: functional

SMILES	MIC [µg/mL]
O=C(O)[C@H](Cc1ccccc1)N1C(=O)/C(=C/c2cc3cc(OCc4ccccc4Br)ccc3nc2Cl)SC1=S	4 (≈ 6.25 µM)
O=C(O)[C@H](Cc1ccccc1)N1C(=O)/C(=C/c2cc3cc(OCc4ccc(Cl)cc4)ccc3nc2Cl)SC1=S	4 (≈ 6.72 µM)
O=C(O)[C@H](Cc1ccccc1)N1C(=O)/C(=C/c2cc3cc(OCc4ccccc4F)ccc3nc2Cl)SC1=S	4 (≈ 6.91 µM)
O=C(O)[C@H](Cc1ccccc1)N1C(=O)/C(=C/c2cc3cc(OCc4cccc(F)c4)ccc3nc2Cl)SC1=S	4 (≈ 6.91 µM)
O=C(O)[C@H](Cc1ccccc1)N1C(=O)/C(=C/c2cc3cc(OCc4ccc(F)cc4)ccc3nc2Cl)SC1=S	4 (≈ 6.91 µM)
Cc1ccc(COc2ccc3nc(Cl)c(/C=C4\SC(=S)N([C@@H](Cc5ccccc5)C(=O)O)C4=O)cc3c2)cc1	2 (≈ 3.48 µM)

The compounds below were run on Staphylococcus aureus (assay: Ratio of gatifloxacin MIC to compound MIC for quinolone-resistant Staphylococcus aureus CCARM 3505). Conditions: not given.
Assay type: functional

SMILES	Ratio
Cc1ccc(COc2ccc3nc(Cl)c(/C=C4\SC(=S)N([C@@H](Cc5ccccc5)C(=O)O)C4=O)cc3c2)cc1	4

The compounds below were run on Escherichia coli (assay: Antibacterial activity against Escherichia coli CCARM 1356 after 24 hrs by broth microdilution method). Conditions: CCARM 1356, 24 h.
Assay type: functional

SMILES	MIC [µg/mL]
O=C(O)[C@H](Cc1ccccc1)N1C(=O)/C(=C/c2cc3cc(OCc4ccccc4Br)ccc3nc2Cl)SC1=S	> 64
O=C(O)[C@H](Cc1ccccc1)N1C(=O)/C(=C/c2cc3cc(OCc4ccc(Cl)cc4)ccc3nc2Cl)SC1=S	> 64
O=C(O)[C@H](Cc1ccccc1)N1C(=O)/C(=C/c2cc3cc(OCc4ccccc4F)ccc3nc2Cl)SC1=S	> 64
O=C(O)[C@H](Cc1ccccc1)N1C(=O)/C(=C/c2cc3cc(OCc4cccc(F)c4)ccc3nc2Cl)SC1=S	> 64
O=C(O)[C@H](Cc1ccccc1)N1C(=O)/C(=C/c2cc3cc(OCc4ccc(F)cc4)ccc3nc2Cl)SC1=S	> 64
Cc1ccc(COc2ccc3nc(Cl)c(/C=C4\SC(=S)N([C@@H](Cc5ccccc5)C(=O)O)C4=O)cc3c2)cc1	> 64

These compounds were tested on Staphylococcus aureus (assay: Ratio of norfloxacin MIC to compound MIC for methicillin-resistant Staphylococcus aureus CCARM 3167). Conditions: not given.
Assay type: functional

SMILES	Ratio
Cc1ccc(COc2ccc3nc(Cl)c(/C=C4\SC(=S)N([C@@H](Cc5ccccc5)C(=O)O)C4=O)cc3c2)cc1	4

Each compound was assayed on Staphylococcus aureus (assay: Antibacterial activity against quinolone-resistant Staphylococcus aureus CCARM 3519 after 24 hrs by broth microdilution method). Conditions: CCARM 3519, 24 h.
Assay type: functional

SMILES	MIC [µg/mL]
O=C(O)[C@H](Cc1ccccc1)N1C(=O)/C(=C/c2cc3cc(OCc4ccccc4Br)ccc3nc2Cl)SC1=S	2 (≈ 3.13 µM)
O=C(O)[C@H](Cc1ccccc1)N1C(=O)/C(=C/c2cc3cc(OCc4ccc(Cl)cc4)ccc3nc2Cl)SC1=S	2 (≈ 3.36 µM)
O=C(O)[C@H](Cc1ccccc1)N1C(=O)/C(=C/c2cc3cc(OCc4ccccc4F)ccc3nc2Cl)SC1=S	2 (≈ 3.45 µM)
O=C(O)[C@H](Cc1ccccc1)N1C(=O)/C(=C/c2cc3cc(OCc4cccc(F)c4)ccc3nc2Cl)SC1=S	2 (≈ 3.45 µM)
O=C(O)[C@H](Cc1ccccc1)N1C(=O)/C(=C/c2cc3cc(OCc4ccc(F)cc4)ccc3nc2Cl)SC1=S	4 (≈ 6.91 µM)
Cc1ccc(COc2ccc3nc(Cl)c(/C=C4\SC(=S)N([C@@H](Cc5ccccc5)C(=O)O)C4=O)cc3c2)cc1	1 (≈ 1.74 µM)

What follows are compounds tested on Staphylococcus aureus (assay: Antibacterial activity against Staphylococcus aureus KCTC 209 after 24 hrs by broth microdilution method). Conditions: KCTC 209, 24 h.
Assay type: functional

SMILES	MIC [µg/mL]
O=C(O)[C@H](Cc1ccccc1)N1C(=O)/C(=C/c2cc3cc(OCc4ccccc4Br)ccc3nc2Cl)SC1=S	8 (≈ 12.5 µM)
O=C(O)[C@H](Cc1ccccc1)N1C(=O)/C(=C/c2cc3cc(OCc4ccc(Cl)cc4)ccc3nc2Cl)SC1=S	8 (≈ 13.4 µM)
O=C(O)[C@H](Cc1ccccc1)N1C(=O)/C(=C/c2cc3cc(OCc4ccccc4F)ccc3nc2Cl)SC1=S	64 (≈ 111 µM)
O=C(O)[C@H](Cc1ccccc1)N1C(=O)/C(=C/c2cc3cc(OCc4cccc(F)c4)ccc3nc2Cl)SC1=S	64 (≈ 111 µM)
O=C(O)[C@H](Cc1ccccc1)N1C(=O)/C(=C/c2cc3cc(OCc4ccc(F)cc4)ccc3nc2Cl)SC1=S	32 (≈ 55.3 µM)
Cc1ccc(COc2ccc3nc(Cl)c(/C=C4\SC(=S)N([C@@H](Cc5ccccc5)C(=O)O)C4=O)cc3c2)cc1	8 (≈ 13.9 µM)

These compounds were tested on Staphylococcus aureus (assay: Ratio of norfloxacin MIC to compound MIC for methicillin-resistant Staphylococcus aureus CCARM 3506). Conditions: not given.
Assay type: functional

SMILES	Ratio
Cc1ccc(COc2ccc3nc(Cl)c(/C=C4\SC(=S)N([C@@H](Cc5ccccc5)C(=O)O)C4=O)cc3c2)cc1	4

The compounds below were run on Staphylococcus aureus (assay: Ratio of norfloxacin MIC to compound MIC for quinolone-resistant Staphylococcus aureus CCARM 3505). Conditions: not given.
Assay type: functional

SMILES	Ratio
Cc1ccc(COc2ccc3nc(Cl)c(/C=C4\SC(=S)N([C@@H](Cc5ccccc5)C(=O)O)C4=O)cc3c2)cc1	4

Each compound was assayed on Staphylococcus aureus (assay: Ratio of moxifloxacin MIC to compound MIC for quinolone-resistant Staphylococcus aureus CCARM 3505). Conditions: not given.
Assay type: functional

SMILES	Ratio
Cc1ccc(COc2ccc3nc(Cl)c(/C=C4\SC(=S)N([C@@H](Cc5ccccc5)C(=O)O)C4=O)cc3c2)cc1	4

Each compound was assayed on Staphylococcus aureus (assay: Antibacterial activity against quinolone-resistant Staphylococcus aureus CCARM 3505 after 24 hrs by broth microdilution method). Conditions: CCARM 3505, 24 h.
Assay type: functional

SMILES	MIC [µg/mL]
O=C(O)[C@H](Cc1ccccc1)N1C(=O)/C(=C/c2cc3cc(OCc4ccccc4Br)ccc3nc2Cl)SC1=S	2 (≈ 3.13 µM)
O=C(O)[C@H](Cc1ccccc1)N1C(=O)/C(=C/c2cc3cc(OCc4ccc(Cl)cc4)ccc3nc2Cl)SC1=S	2 (≈ 3.36 µM)
O=C(O)[C@H](Cc1ccccc1)N1C(=O)/C(=C/c2cc3cc(OCc4ccccc4F)ccc3nc2Cl)SC1=S	2 (≈ 3.45 µM)
O=C(O)[C@H](Cc1ccccc1)N1C(=O)/C(=C/c2cc3cc(OCc4cccc(F)c4)ccc3nc2Cl)SC1=S	1 (≈ 1.73 µM)
O=C(O)[C@H](Cc1ccccc1)N1C(=O)/C(=C/c2cc3cc(OCc4ccc(F)cc4)ccc3nc2Cl)SC1=S	2 (≈ 3.45 µM)
Cc1ccc(COc2ccc3nc(Cl)c(/C=C4\SC(=S)N([C@@H](Cc5ccccc5)C(=O)O)C4=O)cc3c2)cc1	1 (≈ 1.74 µM)

Each compound was assayed on Staphylococcus aureus (assay: Antibacterial activity against methicillin-resistant Staphylococcus aureus CCARM 3506 after 24 hrs by broth microdilution method). Conditions: CCARM 3506, 24 h.
Assay type: functional

SMILES	MIC [µg/mL]
O=C(O)[C@H](Cc1ccccc1)N1C(=O)/C(=C/c2cc3cc(OCc4ccccc4Br)ccc3nc2Cl)SC1=S	2 (≈ 3.13 µM)
O=C(O)[C@H](Cc1ccccc1)N1C(=O)/C(=C/c2cc3cc(OCc4ccc(Cl)cc4)ccc3nc2Cl)SC1=S	2 (≈ 3.36 µM)
O=C(O)[C@H](Cc1ccccc1)N1C(=O)/C(=C/c2cc3cc(OCc4ccccc4F)ccc3nc2Cl)SC1=S	2 (≈ 3.45 µM)
O=C(O)[C@H](Cc1ccccc1)N1C(=O)/C(=C/c2cc3cc(OCc4cccc(F)c4)ccc3nc2Cl)SC1=S	1 (≈ 1.73 µM)
O=C(O)[C@H](Cc1ccccc1)N1C(=O)/C(=C/c2cc3cc(OCc4ccc(F)cc4)ccc3nc2Cl)SC1=S	2 (≈ 3.45 µM)
Cc1ccc(COc2ccc3nc(Cl)c(/C=C4\SC(=S)N([C@@H](Cc5ccccc5)C(=O)O)C4=O)cc3c2)cc1	1 (≈ 1.74 µM)

What follows are compounds tested on Staphylococcus aureus (assay: Ratio of moxifloxacin MIC to compound MIC for quinolone-resistant Staphylococcus aureus CCARM 3519). Conditions: not given.
Assay type: functional

SMILES	Ratio
Cc1ccc(COc2ccc3nc(Cl)c(/C=C4\SC(=S)N([C@@H](Cc5ccccc5)C(=O)O)C4=O)cc3c2)cc1	4

What follows are compounds tested on HeLa (assay: Cytotoxicity against human HeLa cells after 48 hrs by MTT assay). Conditions: not given.
Assay type: cell-based

SMILES	IC50 [µg/mL]
Cc1ccc(COc2ccc3nc(Cl)c(/C=C4\SC(=S)N([C@@H](Cc5ccccc5)C(=O)O)C4=O)cc3c2)cc1	13.3 (≈ 23.1 µM)

What follows are compounds tested on Staphylococcus aureus (assay: Ratio of gatifloxacin MIC to compound MIC for quinolone-resistant Staphylococcus aureus CCARM 3519). Conditions: not given.
Assay type: functional

SMILES	Ratio
Cc1ccc(COc2ccc3nc(Cl)c(/C=C4\SC(=S)N([C@@H](Cc5ccccc5)C(=O)O)C4=O)cc3c2)cc1	4

The compounds below were run on Staphylococcus aureus (assay: Antibacterial activity against Staphylococcus aureus KCTC 503 after 24 hrs by broth microdilution method). Conditions: KCTC 503, 24 h.
Assay type: functional

SMILES	MIC [µg/mL]
O=C(O)[C@H](Cc1ccccc1)N1C(=O)/C(=C/c2cc3cc(OCc4ccccc4Br)ccc3nc2Cl)SC1=S	8 (≈ 12.5 µM)
O=C(O)[C@H](Cc1ccccc1)N1C(=O)/C(=C/c2cc3cc(OCc4ccc(Cl)cc4)ccc3nc2Cl)SC1=S	4 (≈ 6.72 µM)
O=C(O)[C@H](Cc1ccccc1)N1C(=O)/C(=C/c2cc3cc(OCc4ccccc4F)ccc3nc2Cl)SC1=S	8 (≈ 13.8 µM)
O=C(O)[C@H](Cc1ccccc1)N1C(=O)/C(=C/c2cc3cc(OCc4cccc(F)c4)ccc3nc2Cl)SC1=S	4 (≈ 6.91 µM)
O=C(O)[C@H](Cc1ccccc1)N1C(=O)/C(=C/c2cc3cc(OCc4ccc(F)cc4)ccc3nc2Cl)SC1=S	4 (≈ 6.91 µM)
Cc1ccc(COc2ccc3nc(Cl)c(/C=C4\SC(=S)N([C@@H](Cc5ccccc5)C(=O)O)C4=O)cc3c2)cc1	8 (≈ 13.9 µM)

What follows are compounds tested on Staphylococcus aureus (assay: Ratio of norfloxacin MIC to compound MIC for quinolone-resistant Staphylococcus aureus CCARM 3519). Conditions: not given.
Assay type: functional

SMILES	Ratio
Cc1ccc(COc2ccc3nc(Cl)c(/C=C4\SC(=S)N([C@@H](Cc5ccccc5)C(=O)O)C4=O)cc3c2)cc1	4

Each compound was assayed on Staphylococcus aureus (assay: Antibacterial activity against methicillin-resistant Staphylococcus aureus CCARM 3167 after 24 hrs by broth microdilution method). Conditions: CCARM 3167, 24 h.
Assay type: functional

SMILES	MIC [µg/mL]
O=C(O)[C@H](Cc1ccccc1)N1C(=O)/C(=C/c2cc3cc(OCc4ccccc4Br)ccc3nc2Cl)SC1=S	2 (≈ 3.13 µM)
O=C(O)[C@H](Cc1ccccc1)N1C(=O)/C(=C/c2cc3cc(OCc4ccc(Cl)cc4)ccc3nc2Cl)SC1=S	2 (≈ 3.36 µM)
O=C(O)[C@H](Cc1ccccc1)N1C(=O)/C(=C/c2cc3cc(OCc4ccccc4F)ccc3nc2Cl)SC1=S	1 (≈ 1.73 µM)
O=C(O)[C@H](Cc1ccccc1)N1C(=O)/C(=C/c2cc3cc(OCc4cccc(F)c4)ccc3nc2Cl)SC1=S	2 (≈ 3.45 µM)
O=C(O)[C@H](Cc1ccccc1)N1C(=O)/C(=C/c2cc3cc(OCc4ccc(F)cc4)ccc3nc2Cl)SC1=S	2 (≈ 3.45 µM)
Cc1ccc(COc2ccc3nc(Cl)c(/C=C4\SC(=S)N([C@@H](Cc5ccccc5)C(=O)O)C4=O)cc3c2)cc1	1 (≈ 1.74 µM)

Reference: ChEMBL document CHEMBL2401670, “Synthesis and biological evaluation of rhodanine derivatives bearing a quinoline moiety as potent antimicrobial agents” (Bioorg Med Chem Lett, 2013)
